Assay results from patent US20240424115A1, “LONG-ACTING INTERLEUKIN-15 RECEPTOR AGONISTS AND RELATED IMMUNOTHERAPEUTIC COMPOSITIONS AND METHODS” (Nektar Therapeutics, priority 2017, published 2024).

Test system: NK cells, CD8 T cells, CD4 T cells
Assay: In vivo PD study in mice: lymphocyte cell numbers, proliferation and activation
Parameters: species or system Balb/c mice
Description: NK cells and their proliferation were defined using CD45+CD3-CD49b+ and CD45+CD3-CD49b+Ki67+ marker combinations. Following dosing, blood samples were acquired on the Fortessa flow cytometer running FACS DIVA software. Flowjo software was used for analysis and NK cell absolute values and Ki67% positivity within NK cells were plotted using Prism.
In mouse, four different maturation states of NK cells are defined by CD27 and CD11b expression. Once NK marker (CD49b+), natural activating NK receptor (NKp46+) and IL-15/IL-2RB (CD122+) triple positive cells were identified, immature (CD11b−CD27−), early (CD11b−CD27+), high effector (CD11b+CD27+) and terminal effector (CD11b+CD27−) NK cells were quantified by flow cytometry.
NK cells in various maturation states were quantified in mice receiving a single dose, or after the third dose of a q7dx3 schedule, of Conjugate 1 at 0.01, 0.03, 0.1, 0.3, 1.0, and 1.5 mg/kg as described above. Using flow cytometry, the NK population of interest was identified by CD49b, NKp46 and CD122 positivity. CD11b and CD27 were then used to further differentiate the NK population in immature (CD11b-CD27−), early NK (CD11b−CD27+), high effector (CD11b+CD27+) and terminal effector (CD11b+CD27−) subpopulations. Peripheral blood was run on the Fortessa flow cytometer and absolute values for each population were determined using counting beads during sample acquisition using BD FACS DIVA software. Flow cytometric analysis was conducted using Flowjo software and data plotted in Prism.
The surface expression of NKG2D was conducted using flow cytometric analysis of anti-NKG2D signal, expressed as mean fluorescence intensity (MFI) in NK cells. Similarly, the level of intracellular granzyme B was conducted using flow cytometry-based detection of anti-Granzyme B signal, also expressed as MFI in NK cells. Following detection of NKG2D and granzyme B signal using the Fortessa flow cytometer and FACS Diva software, analysis was conducted using Flowjo software. MFI values were plotted using Prism. […] Dose-dependent increases in both NK activation markers was observed following a single dose of Conjugate 1.
In mouse, CD8 T cells were defined as CD45+CD3+CD4−CD8+. Blood and spleen from mice were subject to immunophenotyping using the Fortessa flow cytometer and with analysis using Flowjo software. Absolute CD8 cell counts were plotted in Prism as shown in FIG. 14 (blood) and FIG. 24 (spleen). FIG. 14 and FIG. 24 illustrate the ability of Conjugate 1 to induce proliferation and a sustained increase in numbers of CD8 T-cells following a single i.v. administration in mice at each of the dosage amounts described above. The impact is most notable for the medium (0.1mg/kg, 0.3 mg/kg) and high (1.0 mg/kg, 1.5 mg/kg) dosage amounts.
In mouse, CD8 effector memory (Tem) and CD8 central memory (TCM) T cells were identified as CD45+CD3+CD4−CD8+CD44+CD62− and CD45+CD3+CD4−CD8+CD44+CD62L+. Proliferation of these memory populations was conducted using Ki-67 positivity. Following a single dose of Conjugate 1 or IL-15, blood and spleen were subject to immunophenotyping using the Fortessa flow cytometer, DIVA acquisition software and Flowjo analysis software. Graphs were plotted in Prism. […] Both effector and central memory populations proliferate in response to administration of Conjugate 1, an exemplary long acting IL-15 agonist.
NK-cell Granzyme B expression as a function of time was measured following treatment with Conjugate 1 at doses of 0.01 mg/kg, 0.03 mg/kg, 0.1 mg/kg, 0.3 mg/kg, 1 mg/kg, and 1.5 mg/kg. Whole blood was collected from 24 to 240 hours post-dose for immunophenotyping. Once red blood cells were lysed, white blood cells were labeled with viability dye and markers specific for CD45, CD3 and CD49b to identify live NK cells. Cells were then simultaneously fixed and permeabilized for intracellular Granzyme B staining. Stained blood was run on a Fortessa flow cytometer, acquired by DIVA software and analyzed using Flowjo software. […]

[1] = mice, blood, single dose 0.3 mg/kg

IL-15: recombinant human IL-15 from E. coli, SEQ ID NO: 1, non-glycosylated, 12.9 kDa; unconjugated comparator
Ki67 and Granzyme B in CD49b cells, spleen (mice, single dose): does not

mono-mPEG-SBA40K-IL-15 [Conjugate 1]
Granzyme B percent positivity in blood NK cells (Balb/c mice, 0.03 and 0.3 mg/kg (Example 18)): induced significant increases in NK Granzyme B expression
CD4 T cell numbers and % Ki-67 (Balb/c mice, single i.v. 0.03 or 0.3 mg/kg, compared to CD8 and NK cells): relatively small increase in numbers and % Ki-67 expression
percent of NK cells positive for Granzyme B expression (mice, 0.01-1.5 mg/kg, 24 to 240 hours (Example 15)): increases NK-cell Granzyme B expression
duration of increase in NK cell number (mice, all dose levels): at least 96 hours
duration of increase in % Ki67 (mice, all dose levels, compared to vehicle): at least 120 hours
increase in CD8 Tcm cell numbers [1]: 37.9 X
increase in CD8 Tem cell numbers [1]: 14.5 X
increase in CD8 cell numbers [1]: 6.4 X
duration of increase of NK cells in all maturation sub-populations (mice, i.v., Example 11): at least 120 hours
duration of increase in NK cell number (mice, medium and high dose levels): at least 144 hours
duration of increase in % Ki67 (mice, medium dose ranges (0.1 mg/kg and 0.3 mg/kg)): at least 144 hours
increase in CD8 Tcm cell numbers (mice, repeated dosing Q7dx3): 183 X
increase in CD8 Tem cell numbers (mice, repeated dosing Q7dx3): 73.8 X
increase in CD8 cell numbers (mice, repeated dosing Q7dx3): 35.3 X
Ki67 and Granzyme B in CD49b cells, spleen (mice, single dose): dose-dependent increase in both Ki67 and Granzyme B
Ki-67 in effector and central memory CD8 T cells, blood (mice, single dose): dose-dependent increase in both effector and central memory CD8 T cells
dose levels inducing a significant increase in total CD8 T cells in the blood (mice, single dose): ≥ 0.03 mg/kg
NK cell numbers (mice, single dose 0.01 to 1.5 mg/kg): increase significantly above vehicle control at all dose levels
CD8 and CD8 memory T cell numbers at end of time course (mice, single dose 0.3-1.5 mg/kg): did not return to baseline at 240 hours post injection
NKG2D and Granzyme B expression (MFI) by NK cells (mice, single i.v. 0.03, 0.3, 1 mg/kg vs vehicle): sustained increase in both NKG2D and Granzyme B
time increased CD8 cell numbers were maintained compared to vehicle (mice, single iv injection): at least 240 hours
